This is an account of results in a melting point compilation (Tetko et al.; mined from patent text by program, amines drawn as free bases though some values may be those of a salt).

By melting point is commonly meant the temperature of the solid-liquid transition. In turn, `CS(=O)(=O)c1ccc(-c2sc(COc3ccc(Cl)cc3)nc2-c2ccc(F)cc2)cc1` yielded a melting point of 140 to 143 °C. In the case of `CCCCCCCCCCCCCCCC1Cc2cc(C(=O)O)ccc2N1` (racemic) it was 102 to 104 °C; in that of `CCN(CC)C(=O)COc1ccccc1C(O)(CC)c1cccc(Cl)c1` (configuration not stated), 93 to 94 °C; in that of `COC(=O)COc1ccc(C=O)cc1`, 39 to 41 °C. With `O=Cc1cc2ccccc2[nH]1` the figure was 134 to 137 °C; with `COc1ccnc(CCc2nc3cc(-c4ccc(N)cc4)cnc3[nH]2)c1`, 117 to 119 °C; with `CCOC(=O)C(=O)c1ccc(OCCCCCCc2cccc(OCc3ccccc3)c2OCc2ccccc2)cc1`, 39 to 42 °C. With `Oc1ccccc1OCCCN1CCC(=C(c2ccc(F)cc2)c2ccc(F)cc2)CC1` the figure was 125 to 127 °C; with `CCCCc1nn(-c2cc(NC(=O)CC)ccc2Cl)c(=O)n1Cc1ccc(-c2cc(CC)ccc2S(=O)(=O)NC(=O)c2ccccc2Cl)cc1`, 144 to 146 °C. Consider `CS(=O)(=O)c1ccc(-n2nc(C(F)(F)F)cc2-c2ccc(-c3cncs3)cc2)cc1`, for which the melting point is 169 to 170 °C. In the case of `CC(=O)NCCc1coc2ccc3c(c12)OCCO3` it was 112 °C. The compound `Brc1ccc(N2CCN(CCCOc3ccc(C4=NCCO4)cc3)CC2)nn1` returned a melting point of 169 °C.

For `O=C(Nc1ccc(SC(F)(F)F)c(Cl)c1)c1cc(Cl)c2ccccc2c1O`, the melting point is 148 to 149 °C.

In turn, `CC(C)Oc1cccc(-n2c(NC(=O)Nc3ccc(Br)cc3)nc3ccccc3c2=O)c1` gave a melting point of 230 to 233 °C. `O=C1NC(Cc2cccc(OC(F)(F)C(F)F)c2)C(c2ccc(Oc3ccccc3)cn2)O1` (configuration not stated) gave a melting point of 87 to 88 °C.

For the compound `CC(C)=CCCC(C)C1CCC2C3CCC4CC(O)CCC4(C)C3CCC12C` (configuration not stated), the melting point lay within 117 to 118 °C.

On to `CCOC(=O)Nc1cc(N(C(=O)OCC)S(C)(=O)=O)c(C#N)cc1F`, for which the melting point worked out at 129 °C. As for `COc1cccc(CN2Cc3cc(OC)c(O)cc3C(OC)C2)c1` (configuration not stated), the melting point is 133 to 134 °C.

On to `CCc1cccc(C)c1CNc1cc(Cl)nc2c1nc(C)n2C`, for which the melting point lay in the range of 157 to 159 °C. `COc1cc(C=O)cc(OC)c1C(C)(C)O` had a melting point of 55 °C. With `CC(C)c1ccc(C(=O)CCCCl)cc1` the figure was 35 to 37 °C; with `CCC=CCn1c(=O)sc2c(=O)n(C)c(N)nc21`, 184 to 187 °C. In the case of `CCOC(=O)N1CCSC1C1=C(C)NC(=O)CS1` (configuration not stated) it was 146 to 147 °C; in that of `NS(=O)(=O)c1nc(-c2cccc(Cl)c2)ns1`, 182 to 184 °C. Compound `COc1ccc(CC2=NC(C)(C)CO2)cc1[N+](=O)[O-]` returned a melting point of 88 to 90 °C. `Cc1ccc(S(=O)(=O)OC[C@@H]2COc3ccc4scc(Cl)c4c3O2)cc1` yielded a melting point of 169 to 170 °C.

For `CCC(Oc1cccc(C)c1C)C(=O)OC1CC(O)C=C2C=CC(C)C(CCC3CC(O)CC(=O)O3)C21` (mixture of isomers), the melting point is 148 to 150 °C. Consider `O[C@@H]1CN(CC2CC2)CC[C@@H]1c1ccccc1` (relative stereo), for which the melting point was in the range of 94 to 97 °C.

In turn, `Cc1oc(-c2cccnc2)nc1CCl` had a melting point of 87 to 88 °C. With `CCn1ncnc1COc1nn2c(-c3ccccc3F)nncc2c1C(C)(C)C` the figure was 105 °C; with `COc1cc(OCc2nc(-c3ccco3)oc2C)ccc1CO`, 117 to 118 °C.

On to `COc1ccc(Cl)cc1NC(=O)NCc1ccc2c(c1)CN(C1CCC(=O)NC1=O)C2=O` (configuration not stated), for which the melting point was in the range of 283 to 285 °C. In the case of `N#Cc1ccccc1NCc1nc2ccc(F)cc2c(=O)n1-c1cccnc1Cl` it was 183 to 187 °C; in that of `O=c1cc(-c2ccc(C(F)(F)F)cc2)cc(C(F)(F)F)o1`, 52 °C. Consider `CCCC(=O)NCCc1c[nH]c2cc(Cl)c(OC)cc12`, for which the melting point was in the range of 98 to 98.5 °C.

For the compound `COc1ccc(OC)c(C=CC(=O)C=Cc2cc(OC)ccc2OC)c1`, the melting point lay within 103 to 104 °C. In turn, `COc1cc2c(cc1Br)Cc1cc(Br)ccc1-2` returned a melting point of 172 °C.

For the compound `CC(C)(C)OC(=O)N[C@H]1C(=O)N[C@H]1CO` (relative stereo), the melting point fell in the range of 128 to 131 °C. With `O=C1NC(=S)SC1=Cc1ccnc2ccccc12` the figure was 325 to 328 °C; with `CCn1cc(C(=O)O)c(=O)c2cc(F)c(N3CCC(CN)CC3)nc21`, 203 to 206 °C. In the case of `O=C1CCC(c2ccccc2)(c2ccccc2)C2CN(C(Cc3ccccc3)=NCc3cccnc3)CC12` (configuration not stated) it was 102 °C; in that of `Cc1cc(C)c2c(c1O)C(=O)C1CCCCC21` (configuration not stated), 64 to 65 °C; in that of `CC(O)(C#CI)c1ccc(OC(F)(F)F)cc1` (configuration not stated), 75 to 76 °C. In the case of `COC(=O)CCC(C(=O)c1cccc(I)c1)c1ccccc1C` (racemic) it was 106 to 108 °C; in that of `O=C(CCCCCNCC(O)c1ccccc1)OCc1ccccc1` (configuration not stated), 77 to 78 °C.

`COc1cc(C)nc(-c2ccc(C)cc2)n1` displayed a melting point of 66 to 67 °C. With `COCNc1c(C#N)cnn1-c1ccc(Cl)c(Cl)c1Cl` the figure was 129 to 130 °C. With `N#CCc1c(-c2ccccc2)[nH]c2nccnc12` the figure was 247 to 248 °C. With `CC(C)c1cccc(C(C)C)c1NC(=O)CN1CC2(CCCCC2)N(c2ccccc2)C1=O` the figure was 107 to 109 °C; with `O=C1CC(O)CN1C(=O)Nc1ccccc1` (configuration not stated), 104 °C; with `[N-]=[N+]=Nc1cc(=O)n(-c2ccccc2)nc1C1=NCCN1`, 238 to 240 °C. For the compound `O=C(O)CCCCCc1nn(-c2ccc([N+](=O)[O-])cc2)c2c1CCCC2`, the melting point is 119 to 121 °C. In the case of `CCOC(=O)c1cnn(-c2ccc(F)cc2)c1` it was 119 to 121 °C; in that of `COC(=O)Cc1ccc(OCCNC(=O)C2Cc3ccccc3N2S(=O)(=O)c2ccc(-c3cc(C)ccc3Cl)cc2)cc1` (configuration not stated), 50 to 53 °C. Compound `CCCC1Oc2cc(OC)c(Cl)c(Cl)c2C1=O` (configuration not stated) displayed a melting point of 90 to 92 °C. `COc1cc(O)c2c(=O)[nH]c(-c3cc(C)c(O)c(C)c3)nc2c1` displayed a melting point of 291 to 293 °C. In the case of `CCOc1c(Nc2ccc(C#N)cc2)c(=O)c1=O` it was 218 to 222 °C. With `Fc1cc(F)c(-c2c(Cl)nc3nc(SCc4ccccc4)nn3c2Cl)c(F)c1` the figure was 106 °C; with `Cc1ncc(OC(=O)C2(C3CCCCC3)CCCCC2)cn1`, 52 to 55 °C. With `Cc1ccc(C(=O)C2=C(O)C(=O)N(c3ccc(C)nn3)C2c2ccc(C)cc2C)cc1` (configuration not stated) the figure was 254 °C; with `CO/C=C(/C(=O)OC)c1ccccc1Oc1cc(N)ncn1`, 158 to 160 °C; with `Cc1cc(C)c2c(c1C)OC(C)(C)C2c1ccc(F)cc1` (configuration not stated), 109 to 110 °C. In turn, `N#Cc1c(N2CCCCC2)cc(-c2ccccc2)c2c1C(=O)c1ccccc1-2` displayed a melting point of 220 to 222 °C. For the compound `CCC(C)(O)C#Cc1ccc(C(CC2CCCC2)C(=O)O)cc1` (configuration not stated), the melting point lay within 91 to 94 °C. As to `C[C@H](NP(=O)(Cc1ccccc1)Cc1ccccc1)C(=O)N1CCC[C@H]1C(=O)N[C@H](C)C(=O)OCc1ccccc1`, the melting point lay in the range of 82 to 85 °C.

Take `Cc1cc(-c2cc(C(F)(F)F)nn2-c2ccc(S(C)(=O)=O)cc2)ccc1-c1cocn1`: the melting point lay within 148 to 150 °C.

Consider `CNCC1CN(c2c(F)cc3c(=O)c(C(=O)O)cn(C4CC4)c3c2F)CCO1` (configuration not stated), for which the melting point lay in the range of 257 to 259 °C. In the case of `C=C(C)C(=O)OCCCc1ccc(-c2ccc(-c3ccc(OC(=O)C(=C)C)cc3F)c(F)c2)cc1` it was 67 °C; in that of `O=C1COc2ccc(C3=Nn4cnnc4SC3c3ccccc3Cl)cc2N1` (configuration not stated), 234 to 235 °C; in that of `CC(C)c1cccc(F)c1NC(=S)N/N=C/c1ccc(-c2ncn(-c3ccc(OC(F)(F)F)cc3)n2)cc1`, 210 to 212 °C.

With `C=CCSc1nc(=O)n(C(=O)NC)s1`, the melting point worked out at 110 °C.

Regarding `Cc1nc2cc(NC(=O)c3cc4cc(-c5ccccc5)ncc4n3Cc3cccc(F)c3)ccc2n1C`, the melting point fell in the range of 288 to 290 °C. With `CCCOc1ccc(COCCN2CCOCC2)cc1-c1nc2c(CCC)nn(C)c2c(=O)[nH]1` the figure was 65 to 66 °C.

For `C=CCCCCCCCCN=C=O`, the melting point was in the range of 94 to 97 °C. `O=C(O)c1ccc(COc2ccc3cc(-c4ccc(-c5ccccc5)[nH]4)ccc3c2)c(C(=O)O)c1`: the melting point was 289 to 291 °C.

In turn, `COc1cc(Cl)c(C(=O)Nc2ccc(C(C)(C)C#N)cc2)cc1OC` gave a melting point of 142 to 144 °C. In the case of `CS(=O)(=O)c1ccc(-n2nc(C(F)F)cc2-c2nc3ccc(F)cc3s2)cc1` it was 204 to 206 °C.

`CN(C(=O)Cc1ccc(Cl)c(Cl)c1)[C@@H]1CCC(=O)C[C@H]1N1CCCC1` (relative stereo): the melting point was 148 to 149 °C. With `Cc1cn(C2(C(=O)N(C)C)CC2)nc1-c1ccccc1` the figure was 52 to 55 °C. With `COc1ccc2c(c1)CC(C(=O)NCCOc1ccc(C(=O)O)cc1)N2S(=O)(=O)c1ccc(-c2ccc(F)cc2F)cc1` (configuration not stated) the figure was 91 °C; with `CCc1ccc2oc(C(=O)Nc3ccc(-c4ccc(S(=O)(=O)NC(C(=O)OC)C(C)C)cc4)cc3)c(C)c2c1OC` (configuration not stated), 170 to 172 °C. With `CCOC(=O)c1cc2c(nc(C)n2C)c(O)c1CCC(O)c1ccccc1` (configuration not stated) the figure was 193 to 195 °C; with `NC(=O)c1c(Cl)ccc([N+](=O)[O-])c1Cl`, 163 to 165 °C. Compound `COC(=O)c1nc(S(C)(=O)=O)ncc1Cl` yielded a melting point of 96 °C.

`O=C(NCc1ccc(Cl)cc1)c1cnc2c(F)cc(I)cc2c1O`: the melting point lay within 268 to 270 °C.

`COC(=O)[C@H](c1ccccc1Cl)N1CCc2sc(OC(=O)COc3ccccc3)cc2C1` showed a melting point of 104 to 106 °C. With `O=C(O)c1ccc(-c2ccnc(-c3cc(-c4ccc(C(=O)O)s4)ccn3)c2)s1` the figure was greater than 300 °C.
